We go through 5 sequences from PMC12470154, “In Vitro Evaluation of Antimicrobial Amyloidogenic Peptides for the Treatment of Early and Mature Bacterial Biofilms” (International Journal of Molecular Sciences, 2025).

In assay [1] the test system is P. aeruginosa (2943 strain). The assay is described as follows: Antibacterial activity in liquid medium (optical density). The format is cell-based, Pseudomonas aeruginosa. Also on record: key to change of optical density vs negative control: ↓: Decrease in the parameter (optical density) compared to the negative control; −: No decrease in the parameter; ↑: Reverse effect (increase in the optical density compared to the control). The conditions noted are these: 24 h, 37 °C; for change of optical density vs negative control: OD 595 nm. The procedure: To evaluate the antibacterial activity of peptides in liquid culture, a stationary-phase culture of the tested bacterial strain was diluted 100-fold in fresh medium containing peptides or gentamicin (positive control) at the specified concentrations. A total volume of 200 µL was added to each well of a 96-well round-bottom microtiter plate. After 24 h of incubation at 37 °C, the samples were transferred to a flat-bottom 96-well microtiter plate, and the optical density was measured at 595 nm. Separately, the optical density of medium containing peptides but no bacteria was measured. These values were used as baseline (zero) readings for subsequent data analysis.

For assay [2], the system named is P. aeruginosa (2943 strain). The assay is described as follows: Early biofilm formation, crystal violet staining. The class given is cell-based, Pseudomonas aeruginosa. The following applies: 24 h; for change of optical density after crystal violet staining vs negative control: peptide present from inoculation, OD 595 nm. The procedure: (§1) After 24 h of incubation, the medium was removed. To assess the total biofilm biomass, the wells were rinsed with sterile PBS solution and stained with 0.1% crystal violet. The dye bound to the surface was then removed using 95% ethanol. To assess the presence of metabolically active cells, 0.3% MTT (PanEco Ltd., Moscow, Russia) solution was added to each well, and the plates were incubated at 37 °C for 2 h. After incubation, the MTT solution was removed, 150 µL of DMSO (Chimmed, Moscow, Russia) and 25 µL of glycine buffer were added to each well, and the plates were left at room temperature for 15 min. The resulting solutions were transferred to a flat-bottom 96-well plate, and optical density was measured at 595 nm.

In assay [3] the test system is S. aureus (129B strain). The assay is described as follows: Early biofilm formation, MTT assay. Further details: key: ↓: Decrease in the parameter (optical density) compared to the negative control; −: No decrease in the parameter; ↑: Reverse effect (increase in the optical density compared to the control). The format is cell-based, Staphylococcus aureus. The conditions noted are these: 24 h, 0.3% MTT 2 h 37 °C, OD 595 nm. The procedure:
as §1
A general note: Tetrazolium assays rely on reduction of a dye to a coloured formazan, in cell work by metabolically active cells.

The test system of assay [4] is MRSA (SA 180-F strain). Nature of the assay: Mature biofilms, MTT assay. The class given is cell-based, methicillin-resistant Staphylococcus aureus. The conditions noted are these: mature biofilm. The procedure:
as §1
(§2) A stationary-phase culture of the tested strain was diluted 100-fold in fresh medium (200 µL per well) and added to the wells of a 96-well round-bottom plate. […] After another 24 h, the medium was removed and the wells were rinsed with sterile PBS to eliminate planktonic cells. The procedures for assessing total biofilm biomass and cell metabolic activity using crystal violet and MTT assays were performed in the same manner as described above for early-stage biofilm experiments.

The subject of assay [5] is MRSA (SA 180-F strain). Nature of the assay: Mature biofilms, MTT assay. The class given is cell-based, methicillin-resistant Staphylococcus aureus. Also on record: key: ↓: Decrease in the parameter (optical density) compared to the negative control; −: No decrease in the parameter; ↑: Reverse effect (increase in the optical density compared to the control). The following applies: mature biofilm: peptide added after 24 h, further 24 h; 0.01-10 mg/mL. The procedure: as §1, §2

Assay [6] concerns P. aeruginosa (2943 strain). Nature of the assay: Mature biofilms, MTT assay. The conditions noted are these: mature biofilm: peptide added after 24 h, further 24 h; 0.01-10 mg/mL. The class given is cell-based, Pseudomonas aeruginosa. Further details: key: ↓: Decrease in the parameter (optical density) compared to the negative control; −: No decrease in the parameter; ↑: Reverse effect (increase in the optical density compared to the control). The procedure:
as §1, §2

Assay [7] relates to P. aeruginosa (2943 strain). The assay is described as follows: Early biofilm formation, MTT assay. The format is cell-based, Pseudomonas aeruginosa. Also on record: key: ↓: Decrease in the parameter (optical density) compared to the negative control; −: No decrease in the optical density; ↑: Reverse effect (increase in the optical density compared to the control). The conditions noted are these: 24 h, 0.3% MTT 2 h 37 °C, OD 595 nm. The procedure:
as §1

Assay [8] concerns P. aeruginosa (2943 strain). The assay is described as follows: Mature biofilms, MTT assay. The format is cell-based, Pseudomonas aeruginosa. The following applies: mature biofilm. The procedure: as §1, §2
Assay [9] relates to E. coli (MG1655 strain). Nature of the assay: Mature biofilms, crystal violet staining. The following applies: mature biofilm: peptide added after 24 h, further 24 h; 0.01-10 mg/mL. The class given is cell-based, Escherichia coli. Also on record: key: ↓: Decrease in the parameter (optical density) compared to the negative control; −: No decrease in the parameter; ↑: Reverse effect (increase in the optical density compared to the control). The procedure:
as §1, §2

Assay [10] concerns MRSA (SA 180-F strain). Nature of the assay: Mature biofilms, crystal violet staining. The format is cell-based, methicillin-resistant Staphylococcus aureus. Further details: key: ↓: Decrease in the parameter (optical density) compared to the negative control; −: No decrease in the optical density; ↑: Reverse effect (increase in the optical density compared to the control). The following applies: mature biofilm: peptide added after 24 h, further 24 h; 0.01-10 mg/mL. The procedure: as §1, §2

Assay [11] has as its system S. aureus (129B strain). Nature of the assay: Mature biofilms, MTT assay. The class given is cell-based, Staphylococcus aureus. Further details: key: ↓: Decrease in the parameter (optical density) compared to the negative control; −: No decrease in the optical density; ↑: Reverse effect (increase in the optical density compared to the control). The following applies: mature biofilm: peptide added after 24 h, further 24 h; 0.01-10 mg/mL. The procedure:
as §1, §2

Assay [12] has as its system E. coli (MG1655 strain). The assay is described as follows: Mature biofilms, MTT assay. Further details: key: ↓: Decrease in the parameter (optical density) compared to the negative control; −: No decrease in the parameter; ↑: Reverse effect (increase in the optical density compared to the control). The class given is cell-based, Escherichia coli. The following applies: mature biofilm: peptide added after 24 h, further 24 h, 0.01-10 mg/mL. The procedure:
as §1, §2

The test system of assay [13] is P. aeruginosa (2943 strain). Nature of the assay: Mature biofilms, MTT assay. The format is cell-based, Pseudomonas aeruginosa. Also on record: key: ↓: Decrease in the parameter (optical density) compared to the negative control; −: No decrease in the optical density; ↑: Reverse effect (increase in the optical density compared to the control). The conditions noted are these: mature biofilm: peptide added after 24 h, further 24 h, 0.01-10 mg/mL. The procedure:
as §1, §2

With “ITDFGIFIGLGGGGSRQIKIWFQNRRMKWKK [I31K^P]”, in assay [1], the “change of optical density vs negative control” value is listed as “↑”. For the same sequence, the “change of optical density after crystal violet staining vs negative control” value in [2] is listed as “−”. For the same sequence, the “change of optical density after MTT assay vs negative control” value in assay [3] was “↑”; in [5], “↓ (0.01 mg/mL)”; in [6], “↑”; in [7], “−”. In [4] (0.01, 0.1, 1, and 10 mg/mL), the “metabolic activity of cells within mature biofilms (MTT)” value is on record as “decreased the metabolic activity”. Moreover, the “concentration given with ↓ (MTT)” value in assay [4] turned out to be 0.01 mg/mL.
For RKKRRQRRRGGGGITDFGIFIGL [R23L^P], the “concentration given with ↓ (decrease in optical density)” value in [1] is 10 mg/mL. In addition, in [1], the “change of optical density vs negative control” value is “↓ (10 mg/mL)”. Also, the “concentration given with ↓ (crystal violet)” value in assay [2] is recorded as 10 mg/mL. Further, the figures for the “change of optical density after crystal violet staining vs negative control” value in assay [2], in assay [9] and in assay [10] were “↓ (10 mg/mL)”, “↑” and “−”, respectively. Also, the “change of optical density after MTT assay vs negative control” value in [3] is given as “↑”; in assay [5], “↓ (0.01 mg/mL)”; in assay [6], “↑”; in [11] it was “−”. Further, the “concentration given with ↓ (MTT)” value in assay [4] is 0.01 mg/mL. Further, the “residual viability of cells (MTT)” value in assay [8] is on record as “did not inhibit”.
In the case of “VTDFGVFVEIGGGGSRQIKIWFQNRRMKWKK [V31K^T, amyloidogenic fragment of S1 of T. thermophilus linked via glycine-rich linker to antennapedia peptide]”, the “concentration given with ↓ (decrease in optical density)” value in [1] was found to be 10 mg/mL. The entries for the “change of optical density vs negative control” value in assay [1] and in assay [1] (listed as V31K^S) were “−” and “↓ (10 mg/mL)”, respectively. Further, in [2], the “concentration given with ↓ (crystal violet)” value was 10 mg/mL. For the same sequence, the “change of optical density after crystal violet staining vs negative control” value in assay [2] is reported as “−”; in assay [2] (listed as V31K^S), “↓ (10 mg/mL)”; in [9], “↑”; in [10] it was “−”. Further, the “change of optical density after MTT assay vs negative control” value is reported as “↑” in assay [3]; “↓ (0.01 mg/mL)” in [5]; “↑” in assay [12] (listed as V31K^S); “↑” in [6]; “−” in assay [7]; “−” in assay [11]. Moreover, the “change of optical density after MTT assay vs negative control” value in [13] (listed as V31K^S) is recorded as “−”. Also, the “concentration given with ↓ (MTT)” value in assay [4] is listed as 0.01 mg/mL. The “residual viability of cells (MTT)” value in [8] was “did not inhibit”.
As for “RKKRRQRRRGGGGVTDFGVFVEI [R23I^T, TAT cell-penetrating peptide linked via glycine linker to amyloidogenic fragment of S1 ribosomal protein of T. thermophilus]”, the “concentration given with ↓ (decrease in optical density)” value in [1] is 10 mg/mL. Besides, the “change of optical density vs negative control” value in [1] is given as “↓ (10 mg/mL)”. Besides, the “change of optical density after crystal violet staining vs negative control” value in assay [2] and in assay [10] was “−” in each case. Also, the “change of optical density after MTT assay vs negative control” value in [3] is listed as “↑”; in [12] it was “↑”; in assay [7] it was “−”; in assay [11] it was “−”; in [13], “−”. Moreover, in assay [8], the “residual viability of cells (MTT)” value is on record as “did not inhibit”.
As for “RKKRRQRRRGGGGVVVHINGGKFGGGGSRQIKIWFQNRRMKWKK [R44K^S]”, the “concentration given with ↓ (decrease in optical density)” value in assay [1] is listed as 10 mg/mL. In addition, the “change of optical density vs negative control” value in assay [1] is given as “↓ (10 mg/mL)”. In [2], the “concentration given with ↓ (crystal violet)” value was 10 mg/mL. For the same sequence, the “change of optical density after crystal violet staining vs negative control” value in assay [2] is on record as “↓ (10 mg/mL)”; in assay [9], “↑”. Besides, the “change of optical density after MTT assay vs negative control” value in assay [3] is on record as “↑”; in assay [5], “↓ (0.01 mg/mL)”; in [12], “↑”; in assay [6], “↑”; in [7], “−”; in assay [11] it was “−”. In assay [13] (listed as R44K^P), the “change of optical density after MTT assay vs negative control” value is “−”. Further, the “concentration given with ↓ (MTT)” value in assay [4] is listed as 0.01 mg/mL. Further, the “residual viability of cells (MTT)” value in assay [8] was “did not inhibit”.
